In patent US6441039B1, “Gastro-intestinal adverse effect-free composition comprising an L-carnitine replacement” (priority 1998, dated 2002):
Several values for one entry are separate records, joined by “and”; a condition that tells them apart may be missing. Equal entries are not always repeated. Structures can show the parent of a compound that is named as a salt. Marks after values point to notes of the source that are not given here.

How the values were obtained:
[1] = oral intake, dose-related; cited from earlier work
[2] = tested on: gastrointestinal motility; assay: charcoal propulsion test, intestinal motility after single oral dose
Procedure: A study on the effect on intestinal motility of L-carnitine acid fumarate vs. L-carnitine L-tartrate administered by the oral route to the rat at a single dose, using the charcoal propulsion test, is hereinbelow reported.
35-day old, Hsd Sprague Dawley (SD) male rats (Harlan), weighing 125-150 g were used in the study. The rats were supplied by Harlan Nossan S.r.l., 8, Via E. Fermi, 20050 Correzzana (MI)—Italy.
Eight male rats/group were treated orally with L-Carnitine acid Fumarate, at the doses of 430-855 and 1710 mg/10 ml/kg, and with L-Carnitine L-Tartrate at the doses of 365-730 and 1455 mg/10 ml/kg.
The doses of the two compounds were chosen as equimolar to 250-500 and 1000 mg/kg of L-Carnitine Inner Salt.
Two additional groups, each consisting of eight males, were set up and orally treated respectively with the vehicle (Control group—0.5% Carboxymethylcellulose (MC) in deionized water: 10 ml/kg) or with Atropine (30 mg/10 ml/kg) as reference standard.
The animals were subdivided at random (in number of 4/cage) into the different dosage groups according to the following scheme:
Forty-five minutes after the administration of all the above reported substances, each rat received orally 1.5 ml of a 10% charcoal suspension.
Exactly twenty minutes after dosing with charcoal suspension the rats were sacrificed; then the distance the charcoal meal had travelled throughout the intestine (from the pyloric sphincter towards the caecum) was measured and expressed as a percentage of the total gut length.

[3] = individual rats, oral 30 mg/10 ml/kg

C[N+](C)(C)C[C@H](O)CC(=O)[O-] [L-carnitine, L-carnitine inner salt]
gastrointestinal adverse effect in users [1]: episodes of diarrhoea have been frequently reported

CN1[C@@H]2CC[C@H]1C[C@@H](OC(=O)C(CO)c1ccccc1)C2 (stereo partly drawn) [Atropine]
Distance travelled as % of total intestine length (individual rat) [2, 3]: 48.74% and 39.68% and 37.50% and 46.56% and 44.07% and 44.96% and 42.06% and 41.60%
Distance travelled by charcoal (individual rat) [2, 3]: 58 cm (2×) and 50 cm and 45 cm and 61 cm and 52 cm (2×) and 53 cm
% change from vehicle ([2]; rat, oral 30 mg/10 ml/kg): −30.87%
change in gastrointestinal motility vs control group ([2]; rat, oral 30 mg/kg): statistically highly significant (p<0.001) decrease in gastrointestinal motility
Distance travelled as % of total intestine length (mean) ([2]; rat, oral single dose 30 mg/10 ml/kg, n=8, p<0.001 vs control): 43.15 ▴ %
